Data from paper PMC10895697 (JAC-Antimicrobial Resistance, 2024).

How the values were obtained:
[1] = test system: S. aureus; parameters: method as in ref 19 (Abad et al.); settings: concentrations 10x or 100x respective MICs; ref 19 (Abad et al.); cited from earlier work
[2] = test system: S. aureus 1814 (MRSA); assay: MIC/MBC by broth microdilution reference method; type: cell-based, Staphylococcus aureus; settings: strain 1814, MRSA ciprofloxacin resistant; broth microdilution
[3] = test system: S. aureus 1333 (MSSA); assay: MIC/MBC by broth microdilution reference method; type: cell-based, Staphylococcus aureus; settings: strain 1333, MSSA multi-susceptible; broth microdilution
[4] = test system: all S. aureus isolates; assay: MIC/MBC by broth microdilution, summary over all isolates; type: cell-based, Staphylococcus aureus; settings: summary over all S. aureus isolates of Table 1; broth microdilution
[5] = test system: S. aureus 1817 (MSSA); assay: MIC/MBC by broth microdilution reference method; type: cell-based, Staphylococcus aureus; settings: strain 1817, MSSA erythromycin resistant; broth microdilution
[6] = test system: S. aureus 1815 (MRSA); assay: MIC/MBC by broth microdilution reference method; type: cell-based, Staphylococcus aureus; settings: strain 1815, MRSA gentamicin and erythromycin resistant; broth microdilution
[7] = test system: S. aureus 1818 (MSSA); assay: MIC/MBC by broth microdilution reference method; type: cell-based, Staphylococcus aureus; settings: strain 1818, MSSA multi-susceptible; broth microdilution
[8] = test system: S. aureus 1816 (MSSA); assay: MIC/MBC by broth microdilution reference method; type: cell-based, Staphylococcus aureus; settings: strain 1816, MSSA multi-susceptible; broth microdilution
[9] = test system: S. aureus 1334 (MSSA); assay: MIC/MBC by broth microdilution reference method; type: cell-based, Staphylococcus aureus; settings: strain 1334, MSSA multi-susceptible; broth microdilution
[10] = test system: S. aureus ATCC 29213 (MSSA reference strain); assay: MIC/MBC by broth microdilution reference method; type: cell-based, Staphylococcus aureus; settings: reference strain ATCC 29213, MSSA; broth microdilution

For `CO[C@H]1/C=C/O[C@@]2(C)Oc3c(C)c(O)c4c(c3C2=O)C2=NC3(CCN(CC(C)C)CC3)NC2=C(NC(=O)/C(C)=C\C=C\[C@H](C)[C@H](O)[C@@H](C)[C@@H](O)[C@@H](C)[C@H](OC(C)=O)[C@@H]1C)C4=O` [rifabutin], the “reduction in intracellular bacteria” value [1] is listed as “around 62.1%”.
In the case of `CO[C@H]1/C=C/O[C@@]2(C)Oc3c(C)c(O)c4c(O)c(c(/C=N/N5CCN(C)CC5)c(O)c4c3C2=O)NC(=O)/C(C)=C\C=C\[C@H](C)[C@H](O)[C@@H](C)[C@@H](O)[C@@H](C)[C@H](OC(C)=O)[C@@H]1C` [rifampicin], the “reduction in intracellular bacteria” value [1] is given as “approximately 54.0%”.
In the case of `CO[C@H]1/C=C/O[C@@]2(C)Oc3c(C)c(O)c4c(O)c(c(/C=N/N5CCN(C6CCCC6)CC5)c(O)c4c3C2=O)NC(=O)/C(C)=C\C=C\[C@H](C)[C@H](O)[C@@H](C)[C@@H](O)[C@@H](C)[C@H](OC(C)=O)[C@@H]1C` [rifapentine], the “reduction in intracellular bacteria” value [1] is listed as 45.3%.
Work on teicoplanin [TEC] yielded an MBC [2] of 1 mg/L, an MIC [2] of 0.5 mg/L and an MBC [3] of 1 mg/L. For the same molecule, the MIC [3] was 0.5 mg/L, the “MICs for all S. aureus isolates” value [4] was 0.25 to 1 mg/L and the MBC [5] was 1 mg/L. For the same molecule, the MIC [5] was 0.5 mg/L, the MBC [6] was 1 mg/L and the MIC [6] was 0.5 mg/L. The MBC [7] was 2 mg/L, the MIC [7] was 1 mg/L and the MBC [8] was 0.5 mg/L. It also gave an MIC [8] of 0.25 mg/L, an MBC [9] of 0.5 mg/L and an MIC [9] of 0.25 mg/L. For the same molecule, the MBC [10] was 1 mg/L and the MIC [10] was 0.5 mg/L.
